{"source": "patent US20120316199A1", "about": "“COMPOSITIONS AND METHODS FOR TREATING, CONTROLLING, REDUCING, OR AMELIORATING INFLAMMATORY PAIN” (priority 2011, published 2012)", "test_system": "intraocular pressure (IOP)", "test": "Intraocular pressure in New Zealand White rabbits, topical dosing four times daily", "format": "in vivo", "conditions": "for Intraocular Pressure, MEAN: A.M. readings", "description": "On Days 1-31, animals received daily topical doses of the appropriate test article into the right eye. Animals were dosed four times per day, with doses administered 2 hours apart. Doses were administered using a calibrated 50-μL pipette. The eyelids were held close for 10 seconds immediately following dosing. The time of each dose administration was recorded.\nIntraocular pressure (“IOP”) was determined for both eyes of each animal on Days 3, 5, 10, 12, 16, 18, 22, 24, 26, 30, and 32. IOP was evaluated with a Medtronic Solan, Model 30 classic pneumatonometer. Proparacaine hydrochloride 0.5% (1 drop) was delivered to each eye prior to IOP measurement. IOP was measured on Monday. Wednesday, and Friday of each week. A two-point diurnal curve was established: IOP was recorded at 8 a.m. and 12 p.m. on Day 3, and at 8 a.m. and 2 p.m. on later days, with a ±1 hour range for each of these times. The time of the measurements was recorded.\nDescriptive statistics were prepared for IOP data of each treatment group (left and right eyes separately) at each measurement interval. The statistics included the number of observations (“N”) mean, standard deviation (“STD”), and standard error (“SEM”). Statistical analyses were conducted on IOP results using Statistical Analysis Systems (SAS Institute. Inc., Cary, N.C. V8.0). Parameters were evaluated using analysis of variance/GLM Procedure followed by Tukey's Standardized Range Test (Tukey, 1985) for post hoc comparisons of group means. The level of significance was set at a probability of p<0.05 for all statistical procedures. Group IOP means were compared at each interval, with left and right eyes compared separately.", "data": [{"smiles": "Cc1ccc2c(NC[C@](O)(CC(C)(C)c3cc(F)cc4c3OCC4)C(F)(F)F)cccc2n1", "note": "[BOL-303242-X, mapracorat]", "values": [{"measurement": "Differences in mean IOP versus BSS group", "setting": "BOL-303242-X groups B-D (10, 5, 1 mg/g), p<0.05", "value": "No statistically significant (p<0.05) differences"}, {"measurement": "Effect of daily dosing on IOP compared to daily dosing with dexamethasone", "setting": "BOL-303242-X suspensions 0.05, 0.25, 0.5 mg/dose, four times daily up to 31 days", "value": "did not increase IOP"}, {"measurement": "Course of mean IOP after treatment began", "setting": "left and right eyes, dexamethasone 0.1% (Group A), BOL-303242-X 10, 5, 1 mg/g (Groups B-D), four times daily", "value": "not seen"}, {"measurement": "Intraocular Pressure, MEAN", "setting": "treated right eyes, Day 3, 1 mg/g (Group D)", "value": 23.0, "unit": "mmHg"}, {"measurement": "Intraocular Pressure, MEAN", "setting": "treated right eyes, Day 3, 5 mg/g (Group C)", "value": 23.7, "unit": "mmHg"}, {"measurement": "Intraocular Pressure, MEAN", "setting": "treated right eyes, Day 3, 10 mg/g (Group B)", "value": 22.7, "unit": "mmHg"}, {"measurement": "Intraocular Pressure, MEAN", "setting": "treated right eyes, Day 5, 1 mg/g (Group D)", "value": 24.7, "unit": "mmHg"}, {"measurement": "Intraocular Pressure, MEAN", "setting": "treated right eyes, Day 5, 5 mg/g (Group C)", "value": 24.7, "unit": "mmHg"}, {"measurement": "Intraocular Pressure, MEAN", "setting": "treated right eyes, Day 5, 10 mg/g (Group B)", "value": 23.8, "unit": "mmHg"}, {"measurement": "Intraocular Pressure, MEAN", "setting": "treated right eyes, Day 10, 1 mg/g (Group D)", "value": 24.8, "unit": "mmHg"}, {"measurement": "Intraocular Pressure, MEAN", "setting": "treated right eyes, Day 10, 5 mg/g (Group C)", "value": 25.2, "unit": "mmHg"}, {"measurement": "Intraocular Pressure, MEAN", "setting": "treated right eyes, Day 10, 10 mg/g (Group B)", "value": 24.5, "unit": "mmHg"}, {"measurement": "Intraocular Pressure, MEAN", "setting": "treated right eyes, Day 12, 1 mg/g (Group D)", "value": 23.4, "unit": "mmHg"}, {"measurement": "Intraocular Pressure, MEAN", "setting": "treated right eyes, Day 12, 5 mg/g (Group C)", "value": 25.0, "unit": "mmHg"}, {"measurement": "Intraocular Pressure, MEAN", "setting": "treated right eyes, Day 12, 10 mg/g (Group B)", "value": 23.9, "unit": "mmHg"}, {"measurement": "Intraocular Pressure, MEAN", "setting": "treated right eyes, Day 16, 1 mg/g (Group D)", "value": 22.1, "unit": "mmHg"}, {"measurement": "Intraocular Pressure, MEAN", "setting": "treated right eyes, Day 16, 5 mg/g (Group C)", "value": 24.3, "unit": "mmHg"}, {"measurement": "Intraocular Pressure, MEAN", "setting": "treated right eyes, Day 16, 10 mg/g (Group B)", "value": 23.4, "unit": "mmHg"}, {"measurement": "Intraocular Pressure, MEAN", "setting": "treated right eyes, Day 18, 1 mg/g (Group D)", "value": 23.7, "unit": "mmHg"}, {"measurement": "Intraocular Pressure, MEAN", "setting": "treated right eyes, Day 18, 5 mg/g (Group C)", "value": 23.9, "unit": "mmHg"}, {"measurement": "Intraocular Pressure, MEAN", "setting": "treated right eyes, Day 18, 10 mg/g (Group B)", "value": 22.3, "unit": "mmHg"}, {"measurement": "Intraocular Pressure, MEAN", "setting": "treated right eyes, Day 22, 1 mg/g (Group D)", "value": 23.2, "unit": "mmHg"}, {"measurement": "Intraocular Pressure, MEAN", "setting": "treated right eyes, Day 22, 5 mg/g (Group C)", "value": 22.4, "unit": "mmHg"}, {"measurement": "Intraocular Pressure, MEAN", "setting": "treated right eyes, Day 22, 10 mg/g (Group B)", "value": 22.4, "unit": "mmHg"}, {"measurement": "Intraocular Pressure, MEAN", "setting": "treated right eyes, Day 24, 1 mg/g (Group D)", "value": 22.1, "unit": "mmHg"}, {"measurement": "Intraocular Pressure, MEAN", "setting": "treated right eyes, Day 24, 5 mg/g (Group C)", "value": 23.8, "unit": "mmHg"}, {"measurement": "Intraocular Pressure, MEAN", "setting": "treated right eyes, Day 24, 10 mg/g (Group B)", "value": 21.2, "unit": "mmHg"}, {"measurement": "Intraocular Pressure, MEAN", "setting": "treated right eyes, Day 26, 1 mg/g (Group D)", "value": 23.1, "unit": "mmHg"}, {"measurement": "Intraocular Pressure, MEAN", "setting": "treated right eyes, Day 26, 5 mg/g (Group C)", "value": 22.1, "unit": "mmHg"}, {"measurement": "Intraocular Pressure, MEAN", "setting": "treated right eyes, Day 26, 10 mg/g (Group B)", "value": 21.8, "unit": "mmHg"}, {"measurement": "Intraocular Pressure, MEAN", "setting": "treated right eyes, Day 30, 1 mg/g (Group D)", "value": 24.2, "unit": "mmHg"}, {"measurement": "Intraocular Pressure, MEAN", "setting": "treated right eyes, Day 30, 5 mg/g (Group C)", "value": 22.9, "unit": "mmHg"}, {"measurement": "Intraocular Pressure, MEAN", "setting": "treated right eyes, Day 30, 10 mg/g (Group B)", "value": 22.7, "unit": "mmHg"}, {"measurement": "Intraocular Pressure, MEAN", "setting": "treated right eyes, Day 32, 1 mg/g (Group D)", "value": 24.9, "unit": "mmHg"}, {"measurement": "Intraocular Pressure, MEAN", "setting": "treated right eyes, Day 32, 5 mg/g (Group C)", "value": 23.4, "unit": "mmHg"}, {"measurement": "Intraocular Pressure, MEAN", "setting": "treated right eyes, Day 32, 10 mg/g (Group B)", "value": 23.9, "unit": "mmHg"}, {"measurement": "Intraocular Pressure, MEAN", "setting": "treated right eyes, Pre-Study, 1 mg/g (Group D)", "value": 24.4, "unit": "mmHg"}, {"measurement": "Intraocular Pressure, MEAN", "setting": "treated right eyes, Pre-Study, 5 mg/g (Group C)", "value": 24.8, "unit": "mmHg"}, {"measurement": "Intraocular Pressure, MEAN", "setting": "treated right eyes, Pre-Study, 10 mg/g (Group B)", "value": 24.0, "unit": "mmHg"}, {"measurement": "Intraocular Pressure, MEAN", "setting": "untreated left eyes, Day 3, 1 mg/g (Group D)", "value": 23.5, "unit": "mmHg"}, {"measurement": "Intraocular Pressure, MEAN", "setting": "untreated left eyes, Day 3, 5 mg/g (Group C)", "value": 23.8, "unit": "mmHg"}, {"measurement": "Intraocular Pressure, MEAN", "setting": "untreated left eyes, Day 3, 10 mg/g (Group B)", "value": 23.3, "unit": "mmHg"}, {"measurement": "Intraocular Pressure, MEAN", "setting": "untreated left eyes, Day 5, 1 mg/g (Group D)", "value": 24.4, "unit": "mmHg"}, {"measurement": "Intraocular Pressure, MEAN", "setting": "untreated left eyes, Day 5, 5 mg/g (Group C)", "value": 24.4, "unit": "mmHg"}, {"measurement": "Intraocular Pressure, MEAN", "setting": "untreated left eyes, Day 5, 10 mg/g (Group B)", "value": 23.4, "unit": "mmHg"}, {"measurement": "Intraocular Pressure, MEAN", "setting": "untreated left eyes, Day 10, 1 mg/g (Group D)", "value": 24.5, "unit": "mmHg"}, {"measurement": "Intraocular Pressure, MEAN", "setting": "untreated left eyes, Day 10, 5 mg/g (Group C)", "value": 24.6, "unit": "mmHg"}, {"measurement": "Intraocular Pressure, MEAN", "setting": "untreated left eyes, Day 10, 10 mg/g (Group B)", "value": 24.0, "unit": "mmHg"}, {"measurement": "Intraocular Pressure, MEAN", "setting": "untreated left eyes, Day 12, 1 mg/g (Group D)", "value": 22.2, "unit": "mmHg"}, {"measurement": "Intraocular Pressure, MEAN", "setting": "untreated left eyes, Day 12, 5 mg/g (Group C)", "value": 23.8, "unit": "mmHg"}, {"measurement": "Intraocular Pressure, MEAN", "setting": "untreated left eyes, Day 12, 10 mg/g (Group B)", "value": 23.8, "unit": "mmHg"}]}]}
